Experimental data from PMC3159548 (Biochemical pharmacology, 2011).
Values joined by “and” are separate entries in the source; they are usually repeats but may differ in a detail not shown here. Equal entries are not always repeated. Structures can show the parent of a compound that is named as a salt. Where two headings read alike, the source gives them in different places. Blank lines part the entries; values can stand above or below the molecule they belong to.

Experiments:
CYP2C8.3 [1] = target: T1, CYP2C8.3 (Homo sapiens, UniProt P10632, K399R/R139K)
T1 sequence (P10632 1-490 R139K/K399R): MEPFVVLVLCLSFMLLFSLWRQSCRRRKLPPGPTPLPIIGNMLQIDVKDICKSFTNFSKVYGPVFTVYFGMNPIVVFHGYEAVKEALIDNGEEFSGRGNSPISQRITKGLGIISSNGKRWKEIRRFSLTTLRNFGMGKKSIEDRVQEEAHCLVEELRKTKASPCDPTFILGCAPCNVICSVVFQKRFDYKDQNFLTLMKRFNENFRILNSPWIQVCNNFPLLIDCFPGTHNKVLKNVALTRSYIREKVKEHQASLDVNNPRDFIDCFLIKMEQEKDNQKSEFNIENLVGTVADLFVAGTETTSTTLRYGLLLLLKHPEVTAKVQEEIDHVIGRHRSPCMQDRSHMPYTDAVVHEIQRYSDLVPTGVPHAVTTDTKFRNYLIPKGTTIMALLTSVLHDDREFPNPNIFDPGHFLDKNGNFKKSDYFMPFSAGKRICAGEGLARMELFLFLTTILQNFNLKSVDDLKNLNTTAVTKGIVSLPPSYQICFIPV

CYP2C8.3 [2] = target: T1, CYP2C8.3; conditions: for Clint: kcat/Km
CYP2C8.3 [3] = target: T1, CYP2C8.3; conditions: absence of cytochrome b5 in the reconstitution system; CPR:CYP2C8 2:1
[4] = target: T2, P450 reductase - CYP2C8.3 complex (Homo sapiens, UniProt P10632, K399R/R139K); conditions: probe reaction of each substrate
T2 sequence (P10632 1-490 R139K/K399R): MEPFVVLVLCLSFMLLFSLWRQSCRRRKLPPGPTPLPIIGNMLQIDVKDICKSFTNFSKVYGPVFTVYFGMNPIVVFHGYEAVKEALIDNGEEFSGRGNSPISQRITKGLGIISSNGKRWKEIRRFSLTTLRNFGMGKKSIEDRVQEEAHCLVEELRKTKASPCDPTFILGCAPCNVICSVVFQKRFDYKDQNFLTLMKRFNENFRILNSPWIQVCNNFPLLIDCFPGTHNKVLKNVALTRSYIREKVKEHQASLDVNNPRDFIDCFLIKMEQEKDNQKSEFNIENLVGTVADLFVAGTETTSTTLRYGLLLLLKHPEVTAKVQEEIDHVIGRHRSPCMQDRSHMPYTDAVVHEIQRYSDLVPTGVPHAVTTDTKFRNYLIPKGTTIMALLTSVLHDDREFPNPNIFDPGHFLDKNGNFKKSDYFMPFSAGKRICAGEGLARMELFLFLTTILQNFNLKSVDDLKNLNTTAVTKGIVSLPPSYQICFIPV

CYP2C8.3 [5] = target: T1, CYP2C8.3; test: Equilibrium spectral binding of ligands and redox cofactors to purified CYP2C8.3; conditions: for % change in Bmax, first binding event / % change in Bmax, second binding event / % change in Bmax, redox partner binding: CYP2C8.3 in comparison to CYP2C8.1; for Kd: read-out: KD of redox partner, spectral binding of redox partner to CYP2C8.3
CYP2C8 = conditions: excess of cytochrome b5 (up to 10:1)
CYP2C8.1 [6] = target: T3, CYP2C8.1 (Homo sapiens, UniProt P10632); conditions: for Clint: kcat/Km
T3 sequence (P10632 1-490): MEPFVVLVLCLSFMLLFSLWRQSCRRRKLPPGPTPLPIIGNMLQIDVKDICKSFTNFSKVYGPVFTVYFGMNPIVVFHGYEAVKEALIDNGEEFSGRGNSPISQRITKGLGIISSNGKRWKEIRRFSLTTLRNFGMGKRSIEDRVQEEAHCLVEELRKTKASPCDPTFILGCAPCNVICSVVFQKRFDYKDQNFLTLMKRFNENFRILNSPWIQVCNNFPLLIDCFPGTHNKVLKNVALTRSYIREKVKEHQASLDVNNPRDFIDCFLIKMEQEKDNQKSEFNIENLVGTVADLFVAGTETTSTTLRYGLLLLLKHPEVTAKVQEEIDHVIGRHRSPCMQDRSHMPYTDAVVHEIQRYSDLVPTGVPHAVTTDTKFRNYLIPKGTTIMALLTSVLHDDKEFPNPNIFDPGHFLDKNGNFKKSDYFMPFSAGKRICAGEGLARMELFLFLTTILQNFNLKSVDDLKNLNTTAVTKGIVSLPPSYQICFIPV

CYP2C8.3 [7] = target: T1, CYP2C8.3; conditions: ref [8], cited from earlier work; for Clint: kcat/Km
CYP2C8.1 [8] = target: T3, CYP2C8.1; conditions: ref [8], cited from earlier work; for Clint: kcat/Km
[9] = substrate: CC(=O)O[C@H]1C(=O)[C@@]2(C)[C@H]([C@H](OC(=O)c3ccccc3)[C@]3(O)C[C@H](OC(=O)[C@H](O)[C@@H](NC(=O)c4ccccc4)c4ccccc4)C(C)=C1C3(C)C)[C@]1(OC(C)=O)CO[C@@H]1C[C@@H]2O
[10] = substrate: CN(CCOc1ccc(CC2SC(=O)NC2=O)cc1)c1ccccn1
[11] = substrate: CCN(CC)Cc1cc(Nc2ccnc3cc(Cl)ccc23)ccc1O
[12] = substrate: CN(CCOc1ccc(CC2SC(=O)NC2=O)cc1)c1ccccn1; remark: listed apart in the source
[13] = substrate: CCN(CC)Cc1cc(Nc2ccnc3cc(Cl)ccc23)ccc1O; remark: listed apart in the source
CYP2C8.1 [14] = target: T3, CYP2C8.1; test: Equilibrium spectral binding of ligands and redox cofactors to purified CYP2C8.1; conditions: read-out: KD of redox partner; spectral binding of redox partner to CYP2C8.1
[15] = CER hydroxylation (M23 formation)

Ki (CYP2C8.3 [1]): 103000 nM | fold higher Clint (kcat/Km) for CYP2C8.3 compared to CYP2C8.1 (CYP2C8.3 [2]; DEAQ formation, p-hydroxy and N-de-methyl RG, PAC 6α-hydroxylation): 1.5 fold | Clint (CYP2C8.3 [2]; PAC 6α-hydroxylation): 0.16 µM⁻¹ min⁻¹ | activity of CYP2C8.3 compared to CYP2C8.1 (CYP2C8.3 [3]): less active | decrease of Km, red of CYP2C8.3 in comparison to CYP2C8.1 [4]: ~7 fold | % change in Bmax, first binding event (CYP2C8.3 [5]): +79% | % change in Bmax, second binding event (CYP2C8.3 [5]): −14% | inhibition of CYP-activity by cytochrome b5 (CYP2C8): strong inhibition | substrate inhibition (CYP2C8.1 [6]; CYP2C8.1): negligible
Molecule: CC(=O)O[C@H]1C(=O)[C@@]2(C)[C@H]([C@H](OC(=O)c3ccccc3)[C@]3(O)C[C@H](OC(=O)[C@H](O)[C@@H](NC(=O)c4ccccc4)c4ccccc4)C(C)=C1C3(C)C)[C@]1(OC(C)=O)CO[C@@H]1C[C@@H]2O [PAC, paclitaxel]

decrease of Km, red of CYP2C8.3 in comparison to CYP2C8.1 [4]: did not vary | % change in Bmax, first binding event (CYP2C8.3 [5]): +45% | % change in Bmax, second binding event (CYP2C8.3 [5]): +533% | inhibition of CYP-activity by cytochrome b5 (CYP2C8): less evident
Molecule: COCc1c(C(C)C)nc(C(C)C)c(/C=C/[C@@H](O)C[C@@H](O)CC(=O)O)c1-c1ccc(F)cc1 [CER, (3R,5S,6E)-7-[4-(4-Fluorophenyl)-5-(methoxymethyl)-2,6-bis(1-methylethyl)-3-pyridinyl]-3,5-dihydroxy-6-heptenoic Acid Sodium Salt]
Clint (CYP2C8.3 [7]; CER O-demethylation): 0.11 µM⁻¹ min⁻¹ | Km (CYP2C8.3 [7]; CER O-demethylation): 13 ± 2 µM | kcat (CYP2C8.3 [7]; CER O-demethylation): 1.47 ± 0.06 (**) nmol nmol P450^−1 min^−1 | Km (CYP2C8.3 [7]; [15]): 13 ± 2 µM | kcat (CYP2C8.3 [7]; [15]): 0.61 ± 0.03 (**) nmol nmol P450^−1 min^−1 | Clint (CYP2C8.3 [7]; CER hydroxylation): 0.047 µM⁻¹ min⁻¹ | Clint (CYP2C8.1 [8]; CER O-demethylation): 0.024 µM⁻¹ min⁻¹ | Km (CYP2C8.1 [8]; CER O-demethylation): 24 ± 3 µM | kcat (CYP2C8.1 [8]; CER O-demethylation): 0.57 ± 0.02 nmol nmol P450^−1 min^−1 | Km (CYP2C8.1 [8]; [15]): 23 ± 2 µM | kcat (CYP2C8.1 [8]; [15]): 0.22 ± 0.01 nmol nmol P450^−1 min^−1 | Clint (CYP2C8.1 [8]; CER hydroxylation): 0.0096 µM⁻¹ min⁻¹

Ki (CYP2C8.3 [1]): 150000 nM | Clint (CYP2C8.3 [2]; RG N-de-methylation): 0.33 µM⁻¹ min⁻¹ | Clint (CYP2C8.3 [2]; RG p-hydroxylation): 0.29 µM⁻¹ min⁻¹ | Clint (CYP2C8.1 [6]; RG N-de-methylation): 0.13 µM⁻¹ min⁻¹ | Clint (CYP2C8.1 [6]; RG p-hydroxylation): 0.11 µM⁻¹ min⁻¹
Molecule: CN(CCOc1ccc(CC2SC(=O)NC2=O)cc1)c1ccccn1 (centres unmarked) [RG, rosiglitazone]

B1: CYP2C8.1 (Homo sapiens) (protein)
chain: MEPFVVLVLCLSFMLLFSLWRQSCRRRKLPPGPTPLPIIGNMLQIDVKDICKSFTNFSKVYGPVFTVYFGMNPIVVFHGYEAVKEALIDNGEEFSGRGNSPISQRITKGLGIISSNGKRWKEIRRFSLTTLRNFGMGKRSIEDRVQEEAHCLVEELRKTKASPCDPTFILGCAPCNVICSVVFQKRFDYKDQNFLTLMKRFNENFRILNSPWIQVCNNFPLLIDCFPGTHNKVLKNVALTRSYIREKVKEHQASLDVNNPRDFIDCFLIKMEQEKDNQKSEFNIENLVGTVADLFVAGTETTSTTLRYGLLLLLKHPEVTAKVQEEIDHVIGRHRSPCMQDRSHMPYTDAVVHEIQRYSDLVPTGVPHAVTTDTKFRNYLIPKGTTIMALLTSVLHDDKEFPNPNIFDPGHFLDKNGNFKKSDYFMPFSAGKRICAGEGLARMELFLFLTTILQNFNLKSVDDLKNLNTTAVTKGIVSLPPSYQICFIPV
Km [9]: 3.7 ± 0.6 µM | kcat [9]: 0.00483 s⁻¹ | kcat/Km [9]: 1830 M⁻¹ s⁻¹ | Km [10]: 4.0 ± 0.8 µM and 2.9 ± 0.6 µM | Km [11]: 3.0 ± 0.4 µM | kcat [11]: 0.095 ± 0.00333 s⁻¹ | kcat/Km [11]: 31700 M⁻¹ s⁻¹

B2: CYP2C8.3 (Homo sapiens; K399R/R139K) (protein)
chain: MEPFVVLVLCLSFMLLFSLWRQSCRRRKLPPGPTPLPIIGNMLQIDVKDICKSFTNFSKVYGPVFTVYFGMNPIVVFHGYEAVKEALIDNGEEFSGRGNSPISQRITKGLGIISSNGKRWKEIRRFSLTTLRNFGMGKKSIEDRVQEEAHCLVEELRKTKASPCDPTFILGCAPCNVICSVVFQKRFDYKDQNFLTLMKRFNENFRILNSPWIQVCNNFPLLIDCFPGTHNKVLKNVALTRSYIREKVKEHQASLDVNNPRDFIDCFLIKMEQEKDNQKSEFNIENLVGTVADLFVAGTETTSTTLRYGLLLLLKHPEVTAKVQEEIDHVIGRHRSPCMQDRSHMPYTDAVVHEIQRYSDLVPTGVPHAVTTDTKFRNYLIPKGTTIMALLTSVLHDDREFPNPNIFDPGHFLDKNGNFKKSDYFMPFSAGKRICAGEGLARMELFLFLTTILQNFNLKSVDDLKNLNTTAVTKGIVSLPPSYQICFIPV
Km [9]: 4.7 ± 0.7 (−) µM | kcat [9]: 0.0127 s⁻¹ | kcat/Km [9]: 2670 M⁻¹ s⁻¹ | Km [12]: 10.2 ± 0.9 µM and 8.0 ± 0.6 µM | Km [13]: 7.5 ± 0.5 µM | kcat [13]: 0.497 ± 0.0117 s⁻¹ | kcat/Km [13]: 66700 M⁻¹ s⁻¹

B3: CPR: Rat cytochrome P450 reductase, expressed; redox partner of CYP2C8 (protein, UniProt P00388 2-678, looked up)
NADPH--cytochrome P450 …: GDSHEDTSATMPEAVAEEVSLFSTTDMVLFSLIVGVLTYWFIFRKKKEEIPEFSKIQTTAPPVKESSFVEKMKKTGRNIIVFYGSQTGTAEEFANRLSKDAHRYGMRGMSADPEEYDLADLSSLPEIDKSLVVFCMATYGEGDPTDNAQDFYDWLQETDVDLTGVKFAVFGLGNKTYEHFNAMGKYVDQRLEQLGAQRIFELGLGDDDGNLEEDFITWREQFWPAVCEFFGVEATGEESSIRQYELVVHEDMDVAKVYTGEMGRLKSYENQKPPFDAKNPFLAAVTANRKLNQGTERHLMHLELDISDSKIRYESGDHVAVYPANDSALVNQIGEILGADLDVIMSLNNLDEESNKKHPFPCPTTYRTALTYYLDITNPPRTNVLYELAQYASEPSEQEHLHKMASSSGEGKELYLSWVVEARRHILAILQDYPSLRPPIDHLCELLPRLQARYYSIASSSKVHPNSVHICAVAVEYEAKSGRVNKGVATSWLRAKEPAGENGGRALVPMFVRKSQFRLPFKSTTPVIMVGPGTGIAPFMGFIQERAWLREQGKEVGETLLYYGCRRSDEDYLYREELARFHKDGALTQLNVAFSREQAHKVYVQHLLKRDREHLWKLIHEGGAHIYVCGDARNMAKDVQNTFYDIVAEFGPMEHTQAVDYVKKLMTKGRYSLDVWS
% change in Bmax, redox partner binding (CYP2C8.3 [5]): +76% | Kd (CYP2C8.3 [5]): 20.7 ± 0.2 nM | Kd (CYP2C8.1 [14]): 29.4 ± 0.2 nM

B4: Cytochrome b5: expressed cytochrome b5; redox partner of CYP2C8 (protein, UniProt P00167 2-134, looked up)
Cytochrome b5: AEQSDEAVKYYTLEEIQKHNHSKSTWLILHHKVYDLTKFLEEHPGGEEVLREQAGGDATENFEDVGHSTDAREMSKTFIIGELHPDDRPKLNKPPETLITTIDSSSSWWTNWVIPAISAVAVALMYRLYMAED
% change in Bmax, redox partner binding (CYP2C8.3 [5]): +298% | Kd (CYP2C8.3 [5]): 16.8 ± 0.3 nM | Kd (CYP2C8.1 [14]): 34.4 ± 0.4 nM
